From PMC6345968, “Structural basis for species-selective targeting of Hsp90 in a pathogenic fungus” (Nature Communications, 2019)
Read-outs that look alike come from different tables or passages of the source.

Assays:
[1] = target: T1, Hsp90 in C. albicans (SC5314) lysate (Candida albicans, UniProt P46598); assay: biochemical; type: binding; conditions: for Ratio re. GdA: EC50 relative to GdA; for FP signal: raw
T1 construct: endogenous in cells; host or cells: C. albicans SC5314 whole-cell lysate

Hsp90 in HEPG2 lysate = conditions: for FP signal: raw
[2] = SC5314 lysate, 0.457 nM compound
[3] = SC5314 lysate, 1.372 nM compound
[4] = SC5314 lysate, 4.115 nM compound
[5] = SC5314 lysate, 12.346 nM compound
[6] = SC5314 lysate, 37.037 nM compound
[7] = SC5314 lysate, 111.111 nM compound
[8] = SC5314 lysate, 333.333 nM compound
[9] = SC5314 lysate, 1000 nM compound
[10] = SC5314 lysate, 3000 nM compound
[11] = ratio of GdA-normalized EC50s, human over fungal lysate
[12] = ratio of GdA-relative EC50 ratios, HepG2 over SC5314
[13] = EC50 / EC50 of GdA in HepG2 lysate
[14] = EC50 relative to GdA, HEPG2 lysate
[15] = HEPG2 lysate, log concentration 0.137354 (1.372 nM)
[16] = HEPG2 lysate, log concentration 0.61437 (4.115 nM)
[17] = HEPG2 lysate, log concentration 1.09153 (12.346 nM)
[18] = HEPG2 lysate, log concentration 1.56864 (37.037 nM)
[19] = HEPG2 lysate, log concentration 2.04576 (111.111 nM)
[20] = HEPG2 lysate, log concentration 2.52288 (333.333 nM)
[21] = HEPG2 lysate, log concentration 3 (1000 nM)
[22] = HEPG2 lysate, log concentration 3.47712 (3000 nM)
[23] = HEPG2 lysate, log concentration -0.340084 (0.457 nM)
[24] = HepG2 lysate, 0.457 nM compound
[25] = HepG2 lysate, 1.372 nM compound
[26] = HepG2 lysate, 4.115 nM compound
[27] = HepG2 lysate, 12.346 nM compound
[28] = HepG2 lysate, 37.037 nM compound
[29] = HepG2 lysate, 111.111 nM compound
[30] = HepG2 lysate, 333.333 nM compound

T1 sequence (P46598 whole entry): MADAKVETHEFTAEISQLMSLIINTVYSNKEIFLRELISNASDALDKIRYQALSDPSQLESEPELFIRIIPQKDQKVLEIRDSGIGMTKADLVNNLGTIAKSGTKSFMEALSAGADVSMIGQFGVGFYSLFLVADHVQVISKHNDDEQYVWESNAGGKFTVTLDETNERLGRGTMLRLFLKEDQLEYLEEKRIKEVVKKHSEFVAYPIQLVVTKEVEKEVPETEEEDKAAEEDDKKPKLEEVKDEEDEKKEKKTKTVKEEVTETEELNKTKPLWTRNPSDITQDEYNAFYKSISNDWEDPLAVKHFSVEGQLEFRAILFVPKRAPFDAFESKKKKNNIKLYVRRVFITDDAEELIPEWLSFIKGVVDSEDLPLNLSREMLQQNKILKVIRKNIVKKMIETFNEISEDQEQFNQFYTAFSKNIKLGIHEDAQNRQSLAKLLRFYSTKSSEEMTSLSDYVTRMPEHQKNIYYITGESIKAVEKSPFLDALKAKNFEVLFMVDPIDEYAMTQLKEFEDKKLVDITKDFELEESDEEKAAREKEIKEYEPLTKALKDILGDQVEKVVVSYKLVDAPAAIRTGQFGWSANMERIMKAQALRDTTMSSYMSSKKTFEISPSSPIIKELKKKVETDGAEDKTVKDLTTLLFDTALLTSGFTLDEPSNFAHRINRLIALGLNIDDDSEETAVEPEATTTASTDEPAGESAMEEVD

## COc1ccc(CON=C2C=CC=CC3OC3CC(C)OC(=O)c3c(O)cc(O)c(Cl)c3C2)cc1 (mixture of isomers) [compound 224]
[1]; SC5314 lysate
  Ratio re. GdA: 79.2475
[1]; SC5314 lysate, 0.457 nM
  FP signal (raw): 204
[1]; [2]
  FP signal relative to 0 nM: 1.02
  FP signal: 204
[1]; SC5314 lysate, 1.372 nM
  FP signal (raw): 206
[1]; [3]
  FP signal relative to 0 nM: 1.03
  FP signal: 206
[1]; SC5314 lysate, 4.115 nM
  FP signal (raw): 205
[1]; [4]
  FP signal relative to 0 nM: 1.025
  FP signal: 205
[1]; SC5314 lysate, 12.346 nM
  FP signal (raw): 200
[1]; [5]
  FP signal relative to 0 nM: 1
  FP signal: 200
[1]; SC5314 lysate, 37.037 nM
  FP signal (raw): 198
[1]; [6]
  FP signal relative to 0 nM: 0.99
  FP signal: 198
[1]; SC5314 lysate, 111.111 nM
  FP signal (raw): 193
[1]; [7]
  FP signal relative to 0 nM: 0.965
  FP signal: 193
[1]; SC5314 lysate, 333.333 nM
  FP signal (raw): 171
[1]; [8]
  FP signal relative to 0 nM: 0.855
  FP signal: 171
[1]; SC5314 lysate, 1000 nM
  FP signal (raw): 116
[1]; [9]
  FP signal relative to 0 nM: 0.58
  FP signal: 116
[1]; SC5314 lysate, 3000 nM
  FP signal (raw): 52
[1]; [10]
  FP signal relative to 0 nM: 0.26
  FP signal: 52
[1]; [11]
  HepG2/SC5314: 1.707
[1]; [12]
  HepG2/SC5314: 1.707
Hsp90 in HEPG2 lysate; [13]
  Ratio rel. GdA (HepG2): 135.257
Hsp90 in HEPG2 lysate; [14]
  Ratio rel. GdA (HepG2): 135.257
Hsp90 in HEPG2 lysate; [15]
  FP signal, Fxn Control: 1.005
Hsp90 in HEPG2 lysate; [16]
  FP signal, Fxn Control: 0.9952
Hsp90 in HEPG2 lysate; [17]
  FP signal, Fxn Control: 1.01
Hsp90 in HEPG2 lysate; [18]
  FP signal, Fxn Control: 1.014
Hsp90 in HEPG2 lysate; [19]
  FP signal, Fxn Control: 1.005
Hsp90 in HEPG2 lysate; [20]
  FP signal, Fxn Control: 0.9952
Hsp90 in HEPG2 lysate; [21]
  FP signal, Fxn Control: 0.8702
Hsp90 in HEPG2 lysate; [22]
  FP signal, Fxn Control: 0.5048
Hsp90 in HEPG2 lysate; [23]
  FP signal, Fxn Control: 0.9904
Hsp90 in HEPG2 lysate; HepG2 lysate, 0.457 nM
  FP signal (raw): 206
Hsp90 in HEPG2 lysate; [24]
  FP signal: 206
Hsp90 in HEPG2 lysate; HepG2 lysate, 1.372 nM
  FP signal (raw): 209
Hsp90 in HEPG2 lysate; [25]
  FP signal: 209
Hsp90 in HEPG2 lysate; HepG2 lysate, 4.115 nM
  FP signal (raw): 207
Hsp90 in HEPG2 lysate; [26]
  FP signal: 207
Hsp90 in HEPG2 lysate; HepG2 lysate, 12.346 nM
  FP signal (raw): 210
Hsp90 in HEPG2 lysate; [27]
  FP signal: 210
Hsp90 in HEPG2 lysate; HepG2 lysate, 37.037 nM
  FP signal (raw): 211
Hsp90 in HEPG2 lysate; [28]
  FP signal: 211
Hsp90 in HEPG2 lysate; HepG2 lysate, 111.111 nM
  FP signal (raw): 209
Hsp90 in HEPG2 lysate; [29]
  FP signal: 209
Hsp90 in HEPG2 lysate; HepG2 lysate, 333.333 nM
  FP signal (raw): 207
Hsp90 in HEPG2 lysate; [30]
  FP signal: 207
Hsp90 in HEPG2 lysate; HepG2 lysate, 1000 nM
  FP signal (raw): 181
Hsp90 in HEPG2 lysate; HepG2 lysate, 1000 nM compound
  FP signal: 181
Hsp90 in HEPG2 lysate; HepG2 lysate, 3000 nM
  FP signal (raw): 105
Hsp90 in HEPG2 lysate; HepG2 lysate, 3000 nM compound
  FP signal: 105

## CCON=C1/C=C/C=C\[C@H]2O[C@H]2C[C@@H](C)OC(=O)c2c(O)cc(O)c(Cl)c2C1 [compound 333]
[1]; SC5314 lysate
  Ratio re. GdA: 0.3152
[1]; SC5314 lysate, 0.457 nM
  FP signal (raw): 168
[1]; [2]
  FP signal relative to 0 nM: 0.8317
  FP signal: 168
[1]; SC5314 lysate, 1.372 nM
  FP signal (raw): 155
[1]; [3]
  FP signal relative to 0 nM: 0.7673
  FP signal: 155
[1]; SC5314 lysate, 4.115 nM
  FP signal (raw): 114
[1]; [4]
  FP signal relative to 0 nM: 0.5644
  FP signal: 114
[1]; SC5314 lysate, 12.346 nM
  FP signal (raw): 81
[1]; [5]
  FP signal relative to 0 nM: 0.401
  FP signal: 81
[1]; SC5314 lysate, 37.037 nM
  FP signal (raw): 58
[1]; [6]
  FP signal relative to 0 nM: 0.2871
  FP signal: 58
[1]; SC5314 lysate, 111.111 nM
  FP signal (raw): 39
[1]; [7]
  FP signal relative to 0 nM: 0.1931
  FP signal: 39
[1]; SC5314 lysate, 333.333 nM
  FP signal (raw): 35
[1]; [8]
  FP signal relative to 0 nM: 0.1733
  FP signal: 35
[1]; SC5314 lysate, 1000 nM
  FP signal (raw): 36
[1]; [9]
  FP signal relative to 0 nM: 0.1782
  FP signal: 36
[1]; SC5314 lysate, 3000 nM
  FP signal (raw): 35
[1]; [10]
  FP signal relative to 0 nM: 0.1733
  FP signal: 35
[1]; SC5314 lysate, not normalized, oxime panel experiment 220817, read-out: EC50
  EC50: 5.36 nM
[1]; [11]
  HepG2/SC5314: 1.134
[1]; [12]
  HepG2/SC5314: 1.134
Hsp90 in HEPG2 lysate; [13]
  Ratio rel. GdA (HepG2): 0.3573
Hsp90 in HEPG2 lysate; [14]
  Ratio rel. GdA (HepG2): 0.3573
Hsp90 in HEPG2 lysate; [15]
  FP signal, Fxn Control: 0.9198
Hsp90 in HEPG2 lysate; [16]
  FP signal, Fxn Control: 0.7075
Hsp90 in HEPG2 lysate; [17]
  FP signal, Fxn Control: 0.5047
Hsp90 in HEPG2 lysate; [18]
  FP signal, Fxn Control: 0.3066
Hsp90 in HEPG2 lysate; [19]
  FP signal, Fxn Control: 0.2075
Hsp90 in HEPG2 lysate; [20]
  FP signal, Fxn Control: 0.1651
Hsp90 in HEPG2 lysate; [21]
  FP signal, Fxn Control: 0.184
Hsp90 in HEPG2 lysate; [22]
  FP signal, Fxn Control: 0.2028
Hsp90 in HEPG2 lysate; [23]
  FP signal, Fxn Control: 0.9575
Hsp90 in HEPG2 lysate; HepG2 lysate, 0.457 nM
  FP signal (raw): 203
Hsp90 in HEPG2 lysate; [24]
  FP signal: 203
Hsp90 in HEPG2 lysate; HepG2 lysate, 1.372 nM
  FP signal (raw): 195
Hsp90 in HEPG2 lysate; [25]
  FP signal: 195
Hsp90 in HEPG2 lysate; HepG2 lysate, 4.115 nM
  FP signal (raw): 150
Hsp90 in HEPG2 lysate; [26]
  FP signal: 150
Hsp90 in HEPG2 lysate; HepG2 lysate, 12.346 nM
  FP signal (raw): 107
Hsp90 in HEPG2 lysate; [27]
  FP signal: 107
Hsp90 in HEPG2 lysate; HepG2 lysate, 37.037 nM
  FP signal (raw): 65
Hsp90 in HEPG2 lysate; [28]
  FP signal: 65
Hsp90 in HEPG2 lysate; HepG2 lysate, 111.111 nM
  FP signal (raw): 44
Hsp90 in HEPG2 lysate; [29]
  FP signal: 44
Hsp90 in HEPG2 lysate; HepG2 lysate, 333.333 nM
  FP signal (raw): 35
Hsp90 in HEPG2 lysate; [30]
  FP signal: 35
Hsp90 in HEPG2 lysate; HepG2 lysate, 1000 nM
  FP signal (raw): 39
Hsp90 in HEPG2 lysate; HepG2 lysate, 1000 nM compound
  FP signal: 39
Hsp90 in HEPG2 lysate; HepG2 lysate, 3000 nM
  FP signal (raw): 43
Hsp90 in HEPG2 lysate; HepG2 lysate, 3000 nM compound
  FP signal: 43
Hsp90 in HEPG2 lysate; HepG2 lysate, oxime panel experiment 220817
  EC50: 7.93 nM
